The results in this text go back to ChEMBL document CHEMBL1201862, “PubChem BioAssay data set” (2004).

Holding throughout (test): NCI tumour cell line growth inhibition, 48 h
The test system of test [1] is SK-OV-3.
Test [2] deals with A498.
For test [3], the system named is RPMI-8226.
In test [4] the test system is MDA-N.
The test system of test [5] is SF-539.
Test [6] relates to SR.
The subject of test [7] is RXF 393.
Test [8] relates to HT-29.
Test [9] deals with OVCAR-3.
Test [10] concerns OVCAR-8.
Test [11] has as its system SF-295.
Test [12] concerns SNB-75.
Test [13] relates to CCRF-CEM.
For test [14], the system named is DU-145.
In test [15] the test system is SNB-19.
For test [16], the system named is TK-10.
For test [17], the system named is PC-3.
Test [18] relates to U-251.
The test system of test [19] is KM12.
Test [20] has as its system OVCAR-5.

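Results reflect a 48-hour exposure of cells in 96-well plates to compound at five concentrations. Here, GI50 denotes the concentration required for 50% inhibition of growth.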 Active and inactive are the calls of the source. Rule as the data show it: active = GI50 up to about 1.1 µM and inactive = higher. Where only a bound is given, the exact number is not on record here.

For the molecule `CNC(=O)N(CCC#N)CCN(C(=O)N(C)C)c1ccccc1`, the GI50 in [1], in test [2], in test [3], in test [4], in [5] and in [6] was > 100 µM (inactive) in each case. Moreover, the GI50 in test [7], in test [8], in test [9], in test [10], in [11] and in test [12] was > 100 µM (inactive) throughout. Also, the GI50 in test [13], in test [14], in [15], in [16], in test [17] and in [18] was > 100 µM (inactive) throughout. Besides, the GI50 in test [19] and in test [20] was > 100 µM (inactive) throughout.
As for `CC1=C2C3=C(C)C(=O)C(C)(C)CC[C@@]3(C)[C@]2(C)CCC(C)(C)C1=O`, the GI50 in [1], in test [2], in [3], in test [4], in test [5] and in test [6] was > 100 µM (inactive) in each case. Moreover, the GI50 in test [7], in test [8], in test [9], in test [10], in test [11] and in test [12] was > 100 µM (inactive) each time. For the same molecule, the GI50 in test [13], in [14], in [15], in test [16], in test [17] and in test [18] was > 100 µM (inactive) in each case. In addition, the GI50 in [19] and in [20] was > 100 µM (inactive) in each case.
Regarding `C=CCc1cccc(C(=O)/C=C(O)/C=C/c2ccccc2Cl)c1O`, the GI50 is 23.6 µM (inactive) in [1]; 21.2 µM (inactive) in test [2]; 6.67 µM (inactive) in test [3]; 27.7 µM (inactive) in [4]; 7.43 µM (inactive) in test [5]; 4.74 µM (inactive) in test [6]. Moreover, the GI50 in test [7] was 19.5 µM (inactive); in [8], 9.93 µM (inactive); in test [9] it was 16.6 µM (inactive); in test [10] it was 6.04 µM (inactive); in [11], 9.27 µM (inactive); in [12], 67.3 µM (inactive). In addition, the GI50 in test [13] is 6.82 µM (inactive); in [14], 15.1 µM (inactive); in [15], 21 µM (inactive); in test [16] it was 42.7 µM (inactive); in [17], 8.38 µM (inactive); in [18] it was 5.66 µM (inactive). Also, the GI50 in test [19] is 17.2 µM (inactive); in test [20], 33.4 µM (inactive).
For `COc1ccc(C(=O)NC2=C(Cl)C(=O)c3ccccc3C2=O)cc1`, the GI50 in test [1] was 2.23 µM (inactive); in test [2], 14.6 µM (inactive); in test [3], 0.579 µM (active); in test [4] it was 2.75 µM (inactive); in test [5] it was 1.66 µM (inactive); in [6], 1.61 µM (inactive). Moreover, the GI50 in test [7] was 0.995 µM (active); in [8] it was 4.41 µM (inactive); in [9], 1.14 µM (inactive); in test [10], 3.32 µM (inactive); in [11], 3.85 µM (inactive); in test [12], 2.56 µM (inactive). The GI50 in test [13] was 3.23 µM (inactive); in test [14] it was 3.86 µM (inactive); in [15], 5.16 µM (inactive); in test [16], 3.22 µM (inactive); in test [17], 1.65 µM (inactive); in test [18] it was 0.977 µM (active). The values for the GI50 in test [19] and in test [20] were 1.07 µM (active) and 2.7 µM (inactive), respectively.
Turning to `Cc1ccc(C)c(NC(=O)C(=O)C(c2cnc3ccc([N+](=O)[O-])cc3n2)[N+](=O)[O-])c1` (stereo not given), the GI50 in test [1] is 32.4 µM (inactive); in test [2] it was 33.2 µM (inactive); in test [3] it was 0.102 µM (active); in test [4], 70.6 µM (inactive); in [5] it was > 100 µM (inactive); in test [6], 34.4 µM (inactive). For the same molecule, the GI50 in [7] is 50.1 µM (inactive); in test [8], 61.2 µM (inactive); in test [9] it was 68.1 µM (inactive); in [10] it was 27 µM (inactive); in test [11] it was > 100 µM (inactive); in test [12], 81.7 µM (inactive). For the same molecule, the GI50 in test [13] was 24.4 µM (inactive); in test [14], 77.4 µM (inactive); in test [15], > 100 µM (inactive); in test [16] it was 27.3 µM (inactive); in [17], 52.1 µM (inactive); in test [18], 40.8 µM (inactive). In addition, the GI50 in [19] is 20.1 µM (inactive); in test [20], > 100 µM (inactive).
As to `CCOC(=O)c1ccc(NC2Oc3cc4c(cc3C(c3cc(OC)c(OC)c(OC)c3)C2C)OCO4)cc1` (stereo not given), the GI50 was 0.483 µM (active) in [1]; 0.566 µM (active) in [2]; 0.296 µM (active) in test [3]; 0.186 µM (active) in test [4]; 0.271 µM (active) in [5]; 0.296 µM (active) in test [6]. For the same molecule, the GI50 in test [7] was 0.552 µM (active); in test [8] it was 0.31 µM (active); in [9] it was 0.352 µM (active); in test [10] it was 0.935 µM (active); in [11] it was 0.269 µM (active); in test [12] it was 0.304 µM (active). The GI50 was 0.371 µM (active) in [13]; 0.48 µM (active) in [14]; 0.617 µM (active) in test [15]; 15.6 µM (inactive) in [16]; 0.376 µM (active) in [17]; 0.433 µM (active) in test [18]. Further, the GI50 in [19] was 0.396 µM (active); in [20] it was 3.94 µM (inactive).
For `CCOC(=O)NC(NNc1ccc([N+](=O)[O-])cc1[N+](=O)[O-])(C(F)(F)F)C(F)(F)F`, the GI50 in test [1] was 23.4 µM (inactive); in test [2], 19.7 µM (inactive); in [3], 17.9 µM (inactive); in test [4], 40.7 µM (inactive); in test [5], 22.5 µM (inactive); in test [6], 5.79 µM (inactive). The GI50 in test [7] is 27.8 µM (inactive); in [8], 32.3 µM (inactive); in test [9], 31.6 µM (inactive); in test [10], 30.8 µM (inactive); in test [11] it was 59.7 µM (inactive); in [12], 45.7 µM (inactive). The GI50 was 20.6 µM (inactive) in test [13]; 40.3 µM (inactive) in [14]; 35.2 µM (inactive) in [15]; 30.7 µM (inactive) in test [16]; 24.7 µM (inactive) in test [17]; 22 µM (inactive) in test [18]. Also, the GI50 was 29.4 µM (inactive) in test [19] and 46 µM (inactive) in test [20].
With `COc1cc2cc(C(=O)N3C[C@H](CCl)c4c3cc(O)c3ccccc43)[nH]c2c(OC)c1OC`, the GI50 is 0.515 µM (active) in [1]; 0.248 µM (active) in [2]; 0.121 µM (active) in test [3]; 1.29 µM (inactive) in test [4]; 0.055 µM (active) in test [5]; 0.0224 µM (active) in [6]. The GI50 in test [7] is 0.0459 µM (active); in test [8] it was 0.185 µM (active); in test [9], 0.279 µM (active); in [10], 0.0942 µM (active); in [11], 0.107 µM (active); in [12], 0.184 µM (active). In addition, the GI50 in [13] is 0.207 µM (active); in test [14], 0.628 µM (active); in test [15], 0.246 µM (active); in [16], 0.277 µM (active); in test [17], 0.267 µM (active); in test [18], 0.1 µM (active). In addition, the GI50 is 0.213 µM (active) in test [19] and 0.264 µM (active) in test [20].
For the molecule `COc1ccc(Cc2nc3cc(C(F)(F)F)ccc3n2C[C@@H]2CCCN3CCCCC23)cc1` (stereo not given in full), the GI50 in test [1] is 15.1 µM (inactive); in [2], 4.4 µM (inactive); in test [3], 11.6 µM (inactive); in test [4], 4.59 µM (inactive); in [5] it was 13.5 µM (inactive); in test [6], 3.93 µM (inactive). For the same molecule, the GI50 was 5.4 µM (inactive) in test [7]; 5.06 µM (inactive) in [8]; 5.77 µM (inactive) in test [9]; 15.3 µM (inactive) in test [10]; 5.82 µM (inactive) in test [11]; 27.4 µM (inactive) in test [12]. In addition, the GI50 was 11.1 µM (inactive) in test [13]; 11 µM (inactive) in test [14]; 13.4 µM (inactive) in test [15]; 9.1 µM (inactive) in test [16]; 10.6 µM (inactive) in test [17]; 13.2 µM (inactive) in test [18]. Also, the GI50 in test [19] was 13.5 µM (inactive); in [20], 13.7 µM (inactive).
For the molecule `Cn1c(=O)sc2cc(C(=S)N3CCCCC3)ccc21`, the GI50 in test [1] is > 100 µM (inactive); in [2], 59.7 µM (inactive); in [3], 61 µM (inactive); in test [4], > 100 µM (inactive); in test [5], 54.5 µM (inactive); in test [6], 22 µM (inactive). The GI50 in test [7] was 38.8 µM (inactive); in [8], > 100 µM (inactive); in test [9] it was 69.2 µM (inactive); in [10] it was 25.4 µM (inactive); in test [11], 92.7 µM (inactive); in [12] it was 19.9 µM (inactive). The GI50 in test [13] is 16.5 µM (inactive); in [14], > 100 µM (inactive); in test [15], > 100 µM (inactive); in test [16], > 100 µM (inactive); in [17] it was 94.6 µM (inactive); in test [18], 41.8 µM (inactive). Moreover, the GI50 in test [19] and in test [20] was > 100 µM (inactive) throughout.
